Each structure is given as a SMILES string. Activity calls are given as the source filed them. The rule behind the calls is not given here.

The record followed here is PubChem BioAssay AID1648 (Sanford-Burnham Center for Chemical Genomics, 2009).

In this assay the target is Serine/threonine-protein kinase mTOR (Homo sapiens) (UniProt P42345). Briefly: mTOR FRB domain ligand binding – biophysical, NMR (AID 1648). To be noted: NMR binding to FRB domain, chemical shift.
Chain of Serine/threonine-protein kinase mTOR (Homo sapiens) (P42345 2015-2114): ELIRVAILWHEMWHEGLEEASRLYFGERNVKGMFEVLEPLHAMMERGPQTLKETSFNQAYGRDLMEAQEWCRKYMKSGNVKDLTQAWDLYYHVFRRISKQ
`COc1ccc(-c2cc(=O)c3c(O)cc(O[C@@H]4O[C@H](CO[C@H]5O[C@H](C)[C@@H](O)[C@H](O)[C@@H]5O)[C@@H](O)[C@H](O)[C@H]4O)cc3o2)cc1O`: the Kd (in general, the equilibrium constant for the complex coming apart) was > 4 mM (inactive). The same measure for `O=C(c1ccc(F)cc1)N1CCOCC1`: > 4 mM (inactive); for `CCCNC(=O)CSc1nnc(C)s1`: > 4 mM (inactive); for `O=S1(=O)CCC(Nc2ccccc2)C1` (configuration not stated): > 4 mM (inactive).

Regarding `CC(=O)c1cc(C(N)=O)c(=S)[nH]c1C`, the Kd was > 4 mM (inactive). The same measure for `CSc1nc2nc(C)cc(=O)n2[nH]1`: > 4 mM (inactive); for `C=CC(C)(O)CC/C=C(\C)CCC=C(C)C` (configuration not stated): > 4 mM (inactive). `O=C(O)c1cc2ccccc2[nH]1`: the Kd was > 4 mM (inactive). Take `COC(=O)c1c(OC)cc2c(c1C)Oc1c(Cl)c(OC(C)=O)c(Cl)c(C)c1C(=O)O2`: the Kd is > 4 mM (inactive). As to `OCc1ccncc1`, the Kd is > 4 mM (inactive).

With `Brc1ccc(-c2nc(-c3ccncc3)no2)o1`, the Kd is > 4 mM (inactive). The same measure for `Cc1nnsc1C(=O)O`: > 4 mM (inactive); for `Nc1nnc(SCc2ccc(F)cc2Cl)s1`: > 4 mM (inactive). The same measure for `NC(=O)Cn1nc(-c2ccc(F)cc2)ccc1=O`: > 4 mM (inactive); for `NCc1nc2ccccc2s1`: > 4 mM (inactive); for `O=C1C=C(Nc2ccc(O)cc2)c2ccccc2C1=O`: > 4 mM (inactive).

As for `Cc1cc(C)n(-c2nc(N)cc(=O)[nH]2)n1`, the Kd is > 4 mM (inactive). Turning to `O=C(O)C1CN2CCC1CC2` (configuration not stated), the Kd is > 4 mM (inactive). With `O=C1C=CC2=C3c4cc(O)c(O)cc4C[C@@]3(O)COC2=C1`, the Kd is > 4 mM (inactive). Turning to `O=C(COc1ccccc1)N1CCc2ccccc2C1`, the Kd was > 4 mM (inactive).

Consider `O=C(c1cccc(-n2cnnn2)c1)N1CCOCC1`, for which the Kd was > 4 mM (inactive). The figure for `Cc1nn(CC(=O)Nc2ccccn2)c(=O)c2ccccc12` is > 4 mM (inactive); for `Cc1noc(C)c1CSc1nc2ccccc2[nH]1` it is > 4 mM (inactive); for `CCN(CC)S(=O)(=O)c1cccc2nsnc12` it is > 4 mM (inactive). For `Fc1cccc(Cl)c1CN1CCNCC1`, the Kd was > 4 mM (inactive). For the compound `S=C(c1ccc(N2CCOCC2)cc1)N1CCOCC1`, the Kd was > 4 mM (inactive). Regarding `O=C1CC(c2c[nH]c3ccccc23)C(=O)N1` (configuration not stated), the Kd was > 4 mM (inactive). As to `Cc1cc(C)c(C(N)=O)c(=S)[nH]1`, the Kd was > 4 mM (inactive).

Turning to `O=c1ccnc(Nc2ccccc2O)[nH]1`, the Kd was > 4 mM (inactive). As for `O=C1C2C3C=CC(O3)C2C(=O)N1c1ccccc1` (configuration not stated), the Kd was > 4 mM (inactive). As to `Cc1cc2ncc(C(=O)Nc3ccccc3)c(C)n2n1`, the Kd is > 4 mM (inactive). With `COc1cccc(=O)c2c(C)n(C)c(C)c12`, the Kd was > 4 mM (inactive). As for `CC12OC(=O)CC3C(C)(C)[C@H](O)C=C[C@]3(C)C1CC[C@]1(C)C2=CC(=O)O[C@H]1c1ccoc1` (some centres not stated), the Kd is > 4 mM (inactive). `CC1(C)Cc2nc(N3CCOCC3)c(C#N)cc2CO1`: the Kd is > 4 mM (inactive). Consider `NCc1ccc2sccc2c1`, for which the Kd is > 4 mM (inactive). Consider `Nc1cccc(-n2cnnn2)c1`, for which the Kd was > 4 mM (inactive). Consider `C[C@]12CCC3C(CC[C@H]4C[C@@H](O)CC[C@]34C)C1CCC2=O` (some centres not stated), for which the Kd was > 4 mM (inactive).

`CCOC(=O)c1ccc(F)c(F)c1`: the Kd is > 4 mM (inactive).

As for `CC(C)CNc1cc(=O)n(C)c(=O)n1C`, the Kd was > 4 mM (inactive). Regarding `OCc1cccc2nonc12`, the Kd was > 4 mM (inactive). With `Nc1cc(C(=O)O)ccc1N1CCCCCC1`, the Kd was > 4 mM (inactive). Turning to `C[C@@H]1CC[C@@]23CCC4(C)[C@@](C=CC5[C@@]6(C)CCC(=O)C(C)(C)C6CC[C@]54C)(OC2=O)C3[C@H]1C` (some centres not stated), the Kd is > 4 mM (inactive). For `c1ccc(C[N+]23CCN(CC2)CC3)cc1`, the Kd was > 4 mM (inactive). With `CNC(=O)c1ccccc1N`, the Kd was > 4 mM (inactive). On to `COc1nc(-c2ccccc2)ccc1-c1noc(C)n1`, for which the Kd is > 4 mM (inactive).

Take `Cc1c(N=CN2CCOCC2)c(=O)n(C)c(=O)n1C`: the Kd is > 4 mM (inactive). For `c1cncc(C(N2CCOCC2)N2CCOCC2)c1`, the Kd was > 4 mM (inactive). On to `Cn1nc(C(=O)NC2CCCCC2)c2ccccc2c1=O`, for which the Kd is > 4 mM (inactive).

Regarding `Cc1ccc(C(=O)N2CCC(C(=O)O)CC2)cc1`, the Kd was > 4 mM (inactive). The figure for `NC(=O)CS(=O)(=O)c1ccc(Cl)cc1` is > 4 mM (inactive); for `CCOc1ccc(-c2n[nH]c(=S)n2C)cc1` it is > 4 mM (inactive); for `O=C(O)CCNc1n[nH]c(=O)[nH]c1=O` it is > 4 mM (inactive). `CC(=O)Nc1ccncc1NC(C)=O`: the Kd was > 4 mM (inactive). In the case of `Cc1nnc(-n2cnc3ccccc32)c2ccccc12`, the Kd was > 4 mM (inactive). Turning to `OCC1Cc2ccccc2N1` (configuration not stated), the Kd is > 4 mM (inactive). Take `CC(C)(O)[C@@H]1Cc2cc3ccc(=O)oc3cc2O1`: the Kd is > 4 mM (inactive). With `O=C(O)C1Cc2c([nH]c3ccccc23)CN1` (configuration not stated), the Kd was > 4 mM (inactive).

As to `Cc1cc(C(=O)NCc2ccco2)cs1`, the Kd is > 4 mM (inactive). The same measure for `Cn1c(=O)c2cn3ncccc3c2n(C)c1=O`: > 4 mM (inactive). `CCNC(CC(=O)Nc1ccc(F)cc1)C(=O)O` (configuration not stated): the Kd is > 4 mM (inactive). For the compound `O=C(O)C(CO)c1ccccc1` (configuration not stated), the Kd was > 4 mM (inactive).

Consider `CN(C)c1nc(N)nc(Cn2ccnc2)n1`, for which the Kd is > 4 mM (inactive).

Take `O=C1CCC(=O)N1c1cccnc1`: the Kd was > 4 mM (inactive).

In the case of `C(=Nn1cnnc1)c1ccccc1`, the Kd is > 4 mM (inactive). For the compound `NC1=NC(=O)/C(=C/c2cccc([N+](=O)[O-])c2)S1`, the Kd is > 4 mM (inactive).

For `CCc1ccc(/C=N/n2cnnc2)cc1`, the Kd was > 4 mM (inactive).

With `CCn1c(=O)cc(N2CCC3(CC2)OCCO3)[nH]c1=O`, the Kd is > 4 mM (inactive).

For the compound `COc1ccc(-c2cc(=O)c3ccccc3o2)cc1OC`, the Kd is > 4 mM (inactive). As for `CC1(C)NC(=O)N(CN2CCOCC2)C1=O`, the Kd was > 4 mM (inactive). Take `COc1cc(C(C)=O)ccc1OC(=O)N1CCOCC1`: the Kd is > 4 mM (inactive). Regarding `Cc1cc(SCCF)n2ncnc2n1`, the Kd is > 4 mM (inactive). For the compound `C[n+]1cccc(C(=O)[O-])c1`, the Kd was > 4 mM (inactive). In the case of `O=C(Nc1cccnc1)c1ccc(Br)s1`, the Kd is > 4 mM (inactive). As for `C[C@@H]1CC[C@H]2[C@@H](C)C(=O)O[C@@H]3OC4(C)CC[C@@H]1[C@]32OO4`, the Kd is > 4 mM (inactive). Take `Cn1cnnc1Sc1ncnc(N)c1[N+](=O)[O-]`: the Kd is > 4 mM (inactive). As to `O=C(O)Cc1n[nH]c(=O)c2ccccc12`, the Kd was > 4 mM (inactive). `Cc1ccc(C)n1-c1ccc(C(=O)N2CCOCC2)cc1`: the Kd is > 4 mM (inactive). In the case of `NC(=O)c1cccc(N2C(=O)C=CC2=O)c1`, the Kd was > 4 mM (inactive). The same measure for `CC(C)C(C)/C=C/C(C)C1CCC2C3=CC=C4CC(O)CCC4(C)C3CCC21C` (configuration not stated): > 4 mM (inactive); for `CN(C)S(=O)(=O)c1ccc(N2CCOCC2)nc1`: > 4 mM (inactive). On to `O=C(O)c1ccc2ccccc2n1`, for which the Kd was > 4 mM (inactive).

Consider `CC(CC(=O)O)n1cccn1` (configuration not stated), for which the Kd was > 4 mM (inactive). With `NC(=O)c1cc(Cl)c(C(N)=O)cc1Cl`, the Kd is > 4 mM (inactive).

As to `O=C(O)c1cc(O)c2c(c1)[C@@H]([C@H]1c3cc(C(=O)O)cc(O)c3C(=O)c3c(O[C@H]4O[C@H](CO)[C@@H](O)[C@H](O)[C@H]4O)cccc31)c1cccc(O[C@H]3O[C@H](CO)[C@@H](O)[C@H](O)[C@H]3O)c1C2=O`, the Kd is > 4 mM (inactive). Turning to `CC(=O)c1cc(CN2C(=O)c3ccccc3C2=O)cs1`, the Kd is > 4 mM (inactive). The same measure for `CCCSc1nnc2[nH]c(=O)cc(N)n12`: > 4 mM (inactive); for `C=C1C(=O)O[C@@H]2C[C@@]3(C)CCC[C@H](C)C3=C[C@H]12`: > 4 mM (inactive); for `COC(=O)c1sccc1S(=O)(=O)N1CCCC1`: > 4 mM (inactive).

With `CNc1nc(C)nc(-n2nc(C)cc2C)n1`, the Kd was > 4 mM (inactive). In the case of `C=CCNC(=O)c1nn2cccnc2c1Cl`, the Kd is > 4 mM (inactive).

In the case of `CC(=O)OC(C)(C)[C@@H]1Cc2cc3ccc(=O)oc3cc2O1`, the Kd was > 4 mM (inactive).

In the case of `C/C=C(\C)C(=O)O[C@H]1C[C@@H](OC(C)=O)[C@@]2(C(=O)OC)CO[C@@H]3C2[C@]12CO[C@](O)(C(=O)OC)[C@H]2[C@](C)(C12O[C@@]1(C)[C@H]1C[C@@H]2OC2OC=C[C@@]21O)[C@@H]3O` (some centres not stated), the Kd was > 4 mM (inactive).

As for `CN1CCC2(CC1)CC1CC3C=CC1(CN2)O3` (configuration not stated), the Kd was > 4 mM (inactive). For the compound `CC(=O)c1nnc2cc(C)nn2c1C`, the Kd was > 4 mM (inactive). For the compound `NC(=O)C12CC3CC(C1)C(=O)C(C3)C2`, the Kd is > 4 mM (inactive).

With `NC(=O)c1ccc2c(c1)OCO2`, the Kd was > 4 mM (inactive).

For the compound `O=c1c(O)c(-c2ccccc2)oc2cc(O)ccc12`, the Kd is > 4 mM (inactive). For the compound `NCCc1c[nH]c2ccccc12`, the Kd was > 4 mM (inactive). On to `CCc1noc(C)c1C(=O)N1CCOCC1`, for which the Kd is > 4 mM (inactive).

Turning to `Cc1nnsc1C(=O)Nc1cccc(S(N)(=O)=O)c1`, the Kd is > 4 mM (inactive). Consider `Cc1cc(C)nc(/N=C(/N)N2CCC(C(N)=O)CC2)n1`, for which the Kd was > 4 mM (inactive).

Turning to `COc1cccc(-c2csc(NC(C)=O)n2)c1`, the Kd was > 4 mM (inactive).
